Data set [1] can be described thus: Determination of intrinsic dissolution (European Pharmacopeia Ed. 7.0, 2.9.3). Format: physicochemical. The note with it: for Intrinsic dissolution: powder of Example 5, Eur. Pharm. 7.0, 2.9.3. The protocol:
The determination of the intrinsic dissolution of the powder, which was obtained according to what is described in Example 5, was carried out according to European Pharmacopeia Ed. 7.0, 2010, 2.9.3, page 256, (the disclosure of which is incorporated herein by reference in its entirety), comparing the new crystal of rifaximin τ and amorphous rifaximin and rifaximin polymorph β.

Data set [2] in a line: Dissolution rate at neutral pH (phosphate buffer pH 6.8). Format: physicochemical. Particulars: for Concentration: 500 mg in 750 ml phosphate buffer pH 6.8, 30°C, 250 rpm. The method, then:
An amount of 500 mg of rifaximin τ, 500 mg of rifaximin polymorph α, and 500 mg of amorphous rifaximin were suspended, respectively, in 750 ml of phosphate buffer at pH 6.8 at a temperature of 30±0.5° C. The solutions were stirred for 120 minutes at a stirring rate of 250 rpm. Samples with equal volume were taken at fixed time intervals, filtered and analyzed by spectrophotometer at a wavelength of 430 nm. The rifaximin concentration in the samples was calculated compared to a solution having a known concentration.

Data set [3] can be described thus: PK / bioavailability study on dogs. Format: in vivo, Beagle male dogs. Particulars: single oral capsule 100 mg/kg, plasma; for tmax: median values. The protocol: A bioavailability study of rifaximin τ in comparison with rifaximin amorphous and rifaximin polymorph alpha has been carried out on 4 Beagle male dogs, by feeding them a dose of 100 mg/kg of one of the polymorphs or amorphous form. Each animal received a single oral capsule of rifaximin τ, amorphous rifaximin, and rifaximin α with a washout period of seven days between the administration of each form to the same animal. Doses were administered with a […] gelatine capsule followed by 10 ml of drinking water.
Blood was taken at 6 time points up to 24 hours post dose and it was collected into tubes containing lithium heparin anticoagulant.
The plasma has been assayed for rifaximin on the validated LC-MS/MS (Liquid Chromatography-Mass Spectrometry/Mass Spectrometry) method and the maximum plasma concentration observed (Cmax), the time to reach the (Cmax), (tmax), and the area under the concentration-time curve (AUC) have been calculated.

For data set [4] the following is noted: per oral route; cited from earlier work.
Data set [5] can be described thus: Stability in different humidity environments (XRPD). In kind it is physicochemical. Particulars: for Stability of crystal form (XRPD pattern after exposure): 10 days; for Stability on exposure to humidity: humidity levels about 10% to about 90%, about 1 hour to about 10 days. The text has this:
a) The rifaximin τ obtained according to Example 1 was exposed at room temperature to a humidity level of 11%, obtained by means of a saturated solution of LiCl, for a period of time of 10 days.
b) Another crystal of rifaximin τ was exposed to a humidity level of 84%, obtained with a supersaturated aqueous solution of KCl for 10 days.

SMILES strings stand for the structures.

Consider `CO[C@H]1/C=C/O[C@@]2(C)Oc3c(C)c(O)c4c(O)c(c5c(nc6cc(C)ccn65)c4c3C2=O)NC(=O)/C(C)=C\C=C\[C@H](C)[C@H](O)[C@@H](C)[C@@H](O)[C@@H](C)[C@H](OC(C)=O)[C@@H]1C` [Amorphous rifaximin, rifaximin], for which the “Effect of added DEGME on measured dissolved rifaximin” value in data set [1] (addition of 0.1 ml and 1.25 ml DEGME to the solution contacting the tablet) is “does not change the measured value of the dissolved rifaximin”. In data set [1], this compound yielded an Intrinsic dissolution of 0.131 mg/min/cm^2. The Concentration in data set [2] (5 min) was 14400 ng/mL; in data set [2] (15 min), 44000 ng/mL; in data set [2] (30 min), 28700 ng/mL; in data set [2] (60 min), 11000 ng/mL; in data set [2] (120 min), 9100 ng/mL. For the same compound, the “AUC 0-8h” value in data set [3] is 1318.02 ± 1975.04 ng·h/mL. In addition, in data set [3], the “AUC 0-tlast” value turned out to be 2337.16 ± 3223.76 ng·h/mL. In addition, the Cmax (in general, the maximum level reached in the sampled fluid or tissue) in data set [3] stood at 279.79 ± 378.41 ng/mL. In data set [3], this compound gave a tmax of 3 h.

Consider `CCOCCOCCO` [DEGME, 2-(2-ethoxyethoxy)ethanol], for which the “NOAEL (No Observed Adverse Effect Level)” value in data set [4] is given as “higher than 160 mg/kg of body mass”.

`CO[C@H]1/C=C/O[C@@]2(C)Oc3c(C)c(O)c4c(O)c(c5c(nc6cc(C)ccn65)c4c3C2=O)NC(=O)/C(C)=C\C=C\[C@H](C)[C@H](O)[C@@H](C)[C@@H](O)[C@@H](C)[C@H](OC(C)=O)[C@@H]1C` [Rifaximin polymorph β, rifaximin] had an Intrinsic dissolution in data set [1] of 0.016 mg/min/cm^2.

`CO[C@H]1/C=C/O[C@@]2(C)Oc3c(C)c(O)c4c(O)c(c5c(nc6cc(C)ccn65)c4c3C2=O)NC(=O)/C(C)=C\C=C\[C@H](C)[C@H](O)[C@@H](C)[C@@H](O)[C@@H](C)[C@H](OC(C)=O)[C@@H]1C` [Rifaximin α, rifaximin]: the Concentration in data set [2] (5 min) stood at 1050 ng/mL; in data set [2] (15 min), 3260 ng/mL; in data set [2] (30 min), 4230 ng/mL; in data set [2] (60 min), 4120 ng/mL; in data set [2] (120 min) it was 3890 ng/mL. In addition, in data set [3], the “AUC 0-8h” value was found to be 7.20 ± 4.00 ng·h/mL. Moreover, the “AUC 0-tlast” value in data set [3] is 16.86 ± 13.99 ng·h/mL. In data set [3], this compound displayed a Cmax of 2.84 ± 1.26 ng/mL. Besides, the tmax in data set [3] is given as 1 h.

For the compound `CO[C@H]1/C=C/O[C@@]2(C)Oc3c(C)c(O)c4c(O)c(c5c(nc6cc(C)ccn65)c4c3C2=O)NC(=O)/C(C)=C\C=C\[C@H](C)[C@H](O)[C@@H](C)[C@@H](O)[C@@H](C)[C@H](OC(C)=O)[C@@H]1C` [Rifaximin τ, rifaximin], the Concentration was 21680 ng/mL in data set [2] (5 min); 57680 ng/mL in data set [2] (15 min); “higher than 90 μg/ml” in data set [2] (30 min); 43140 ng/mL in data set [2] (60 min); 14930 ng/mL in data set [2] (120 min). Besides, the “Concentration relative to rifaximin polymorph α” value in data set [2] (aqueous solution) was “about 25 times”. Moreover, in data set [2] (pH 6.8, after about 30 minutes), the “Concentration relative to amorphous rifaximin” value is on record as “about five times higher”. For the same compound, in data set [2] (pH 6.8, after about 30 minutes), the “Concentration relative to rifaximin polymorph α or β” value is on record as “about twenty times higher”. Moreover, the “AUC 0-8h” value is 0 to 35 ng·h/mL in data set [3] (listed as rifaximin τ) and 19.93 ± 10.25 ng·h/mL in data set [3] (listed as τ). The “AUC 0-tlast” value is 20 to 325 ng·h/mL in data set [3] (listed as rifaximin τ) and 150.54 ± 172.55 ng·h/mL in data set [3] (listed as τ). The Cmax in data set [3] (listed as rifaximin τ) is 0 to 35 ng/mL; in data set [3] (listed as τ), 15.70 ± 18.63 ng/mL. The tmax in data set [3] (listed as rifaximin τ) was 3 to 7 h; in data set [3] (listed as τ), 5 h. Moreover, the “Stability of crystal form (XRPD pattern after exposure)” value in data set [5] (humidity level 11% (saturated LiCl), room temperature) is “correspond to the X-ray diffraction pattern of FIG. 1”; in data set [5] (humidity level 84% (supersaturated KCl)) it was “correspond to the X-ray diffraction pattern of FIG. 1”. Besides, the “Stability on exposure to humidity” value in data set [5] is “does not alter its chemical structure”; in data set [5] (listed as rifaximin τ) it was “does not transform its crystallographic parameters and X-ray diffractogram”.

The values above are taken from patent US10428086B2, “Solvated crystal form of rifaximin, production, compositions and uses thereof” (ALFASIGMA S.p.A., priority 2014, dated 2019).
